Laboratory results published in patent publication US12473273B2, “Quinoline compounds and compositions for inhibiting EZH2” (Novartis AG, priority 2020, dated 2025).

How the values were obtained:
[1] = tested on: H3K27 methylation in G401 cell; experiment: ELISA (H3K27 methylation) assay; assay type: cell-based; conditions: Homo sapiens, G-401, 48 h, cultured 48 h with compound, normalized using H3 signal
Protocol: ELISA (H3K27 methylation) assay
Representative compounds of the invention were serially and separately diluted 3-fold in DO to obtain a total of eight or twelve concentrations. Then the compounds were added to G401 cell cultured in 384-well plate at 1:500 dilution to obtain the highest concentration of 20 μM. The cells were further cultured for 48 h before ELISA procedure.
Histone extraction: Cells, in 384-well plate, were washed with PBS (10 x PBS buffer (80 g NaCl (Sigma, S3014), 2 g KCl (Sigma, 60128), 14.4 g Na2HPO4 (Sigma, S5136), 2.4 g KH2PO4 (Sigma, P9791) to 1 L water, pH to 7.4) and lysed with the addition of lysis buffer (0.4N HCl; 45 μl per well). The plate was gently agitated at 4° C. for 30 min. The cell lysate was neutralized with neutralization buffer (0.5 M sodium phosphate dibasic, pH 12.5. 1 mM DTT; 36 µL per well). The plate was agitated to ensure the lysates were well mixed prior to the ELISA protocol.
ELISA protocol: Cell lysates were transferred to the wells of a 384-well plate and the final volume was adjusted to 50 μL per well with PBS. The plate was sealed, centrifuged at 2,000 rpm for 2 min and incubated at 4° C. for about 16 h. The plate was washed with TBST buffer (1 x TBS (10x TBS: 24.2 g Tris (Sigma, T6066), 80 g NaCl (Sigma, S3014) to 1 L of water and adjust pH to 7.6 with HCl) with 0.1% Tween-20). Blocking buffer (TBST, 5% BSA; 50 µL per well) was added and the plate was incubated for 1 h at rt. The blocking buffer was removed and primary antibody was added (30 μL per well). The following dilutions were performed with blocking buffer: for anti-H3K27me3 antibody (Cell Signaling Technology, #9733), dilution was 1:1000; for anti-H3K27me2 antibody (Cell Signaling Technology, #9288), dilution was 1:100; for anti-H3 antibody (Abcam, Cat #24834), dilution was 1:1000. The primary antibody was incubated in the plate at rt for 1 h. The wells were washed with TBST and incubated with secondary antibody for 1 h at rt. For secondary antibodies, the following dilutions were carried out with blocking buffer: anti-rabbit antibody (Jackson ImmunoResearch, #111-035-003), dilution was 1:2000; and anti-mouse antibody (Cell signaling technology, #7076), dilution was 1:1000.
After 1 h of incubation at rt, the wells were washed with TBST. ECL substrate (Pierce, #34080) was added at 30 μL per well and the plates were centrifuged at 2,000 rpm for 2 min. The signal was read using a PerkinElmer Envision Reader. The H3K27 methylation readouts were normalized using H3 signal and then percentage inhibition was calculated against the samples treated with DO. The data were fit to a dose response curve using the program Helios to get the IC50 values of the test compound.

[2] = biological target: wild type PRC2 (wtPRC2) complex (Homo sapiens, UniProt Q15910); experiment: EZH2 LC-MS Assay; assay type: biochemical; conditions: 40 nM wtPRC2 complex, 30 uM SAM, 1.5 uM H3K27me1 and 3 uM H3K27me3 peptides; SAH production
Protocol: Representative compounds of the invention were serially and separately diluted 3-fold in DMSO to obtain twelve concentrations. Then the test compounds at each concentration (120 nL of each) were transferred by Mosquito into a 384-well Perkin Elmer ProxiPlate 384 plus plates. Solutions (6 μL) of 80 nM wild type PRC2 (wtPRC2) complex and 60 µM SAM in reaction buffer (20 mM Tris, pH 8.0, 0.1% BSA, 0.01% Triton, 0.5 mM DTT) were added to the wells that were then incubated with the test compound for 20 min. A 6 μL solution of 3 µM of the substrate peptide H3K27me1 (histone H3 [21-44]-K27me1-biotin) and 6 μM regulatory peptide H3K27me3 (histone H3 [21-44]-K27me3) in reaction buffer was added to initiate each reaction. The final components in the reaction solution include 40 nM wtPRC2 complex, 30 µM SAM, 1.5 µM H3K27me1 and 3 µM H3K27me3 peptides with varying concentration of the compounds. A positive control consisted of the enzyme at 40 nM, 30 μM SAM, 1.5 µM H3K27me1 and 3 µM H3K27me3 in the absence of the test compound, and a negative control consisted of 30 µM SAM, 1.5 µM H3K27me1 and 3 μM H3K27me3 only. Each reaction was incubated at room temperature for 120 min, then stopped by addition of 3 μL per of quench solution (2.5% TFA with 320 nM d4-SAH). The reaction mixture was centrifuged (Eppendorf centrifuge 5810, Rotor A-4-62) for 2 min at 2000 rpm and read on an API 4000 triple quadrupole mass spec with Turbulon Spray (Applied Biosystem) coupled with Prominence UFLC (Shimadzu). The levels of SAH production were normalized based on the values coming from the positive and negative controls to give percent enzyme activities. The data were fit to a dose response equation using the program Helios to get the […] values of the test compound.

wild type PRC2 (wtPRC2) complex, sequence (Q15910 whole entry): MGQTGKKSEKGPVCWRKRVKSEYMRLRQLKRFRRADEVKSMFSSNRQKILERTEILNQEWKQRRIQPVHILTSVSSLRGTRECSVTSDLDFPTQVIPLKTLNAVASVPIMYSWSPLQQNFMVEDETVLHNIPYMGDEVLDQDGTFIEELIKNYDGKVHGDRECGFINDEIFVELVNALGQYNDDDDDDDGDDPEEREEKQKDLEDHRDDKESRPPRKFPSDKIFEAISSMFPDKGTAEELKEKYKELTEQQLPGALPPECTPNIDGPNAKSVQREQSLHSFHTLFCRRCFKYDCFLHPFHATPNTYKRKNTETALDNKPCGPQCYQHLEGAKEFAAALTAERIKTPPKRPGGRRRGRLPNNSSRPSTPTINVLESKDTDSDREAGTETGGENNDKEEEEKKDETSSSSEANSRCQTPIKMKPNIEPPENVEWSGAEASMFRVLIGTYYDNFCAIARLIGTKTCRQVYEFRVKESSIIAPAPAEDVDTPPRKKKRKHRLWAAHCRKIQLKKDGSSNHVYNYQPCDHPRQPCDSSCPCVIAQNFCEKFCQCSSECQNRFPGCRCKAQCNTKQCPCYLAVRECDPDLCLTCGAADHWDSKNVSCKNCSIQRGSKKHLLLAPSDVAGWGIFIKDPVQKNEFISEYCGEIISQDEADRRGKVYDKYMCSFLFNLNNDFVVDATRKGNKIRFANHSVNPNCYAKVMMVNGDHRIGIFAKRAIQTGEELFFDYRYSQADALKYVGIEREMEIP
wild type PRC2 (wtPRC2) complex, sequence (O75530 whole entry partner): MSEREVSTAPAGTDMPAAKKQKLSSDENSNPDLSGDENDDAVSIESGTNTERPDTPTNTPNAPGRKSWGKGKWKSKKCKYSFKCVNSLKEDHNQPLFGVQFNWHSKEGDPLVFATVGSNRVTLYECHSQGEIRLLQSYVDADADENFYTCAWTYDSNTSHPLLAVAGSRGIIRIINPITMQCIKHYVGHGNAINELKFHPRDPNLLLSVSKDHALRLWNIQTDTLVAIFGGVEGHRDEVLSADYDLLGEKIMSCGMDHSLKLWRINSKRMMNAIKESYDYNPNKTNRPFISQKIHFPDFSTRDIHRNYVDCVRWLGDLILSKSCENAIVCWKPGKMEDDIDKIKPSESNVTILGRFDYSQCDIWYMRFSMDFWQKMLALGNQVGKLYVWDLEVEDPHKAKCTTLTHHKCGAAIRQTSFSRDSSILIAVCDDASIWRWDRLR
wild type PRC2 (wtPRC2) complex, sequence (Q15022 whole entry partner): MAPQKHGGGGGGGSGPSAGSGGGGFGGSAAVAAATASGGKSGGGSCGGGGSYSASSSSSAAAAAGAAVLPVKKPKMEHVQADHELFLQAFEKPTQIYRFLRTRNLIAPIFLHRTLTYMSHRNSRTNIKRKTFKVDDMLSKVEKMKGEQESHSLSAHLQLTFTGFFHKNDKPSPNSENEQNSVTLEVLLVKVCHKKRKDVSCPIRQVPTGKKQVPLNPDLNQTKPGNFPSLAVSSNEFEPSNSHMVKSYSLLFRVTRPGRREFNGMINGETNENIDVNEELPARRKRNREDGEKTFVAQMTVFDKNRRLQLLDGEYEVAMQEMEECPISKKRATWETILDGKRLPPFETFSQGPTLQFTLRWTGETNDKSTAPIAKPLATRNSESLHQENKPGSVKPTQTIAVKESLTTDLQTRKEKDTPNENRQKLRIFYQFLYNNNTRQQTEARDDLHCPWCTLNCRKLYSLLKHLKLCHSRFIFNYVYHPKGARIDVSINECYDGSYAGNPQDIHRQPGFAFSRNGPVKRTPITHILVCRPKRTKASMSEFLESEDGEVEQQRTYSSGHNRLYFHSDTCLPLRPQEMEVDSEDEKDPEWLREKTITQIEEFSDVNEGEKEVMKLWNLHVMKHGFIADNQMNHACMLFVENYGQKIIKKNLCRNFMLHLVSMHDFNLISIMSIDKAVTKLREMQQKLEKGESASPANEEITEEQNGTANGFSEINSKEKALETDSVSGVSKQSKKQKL

IC50 [2]: < 50 nM
SMILES: Cc1ccc2ccc(N[C@H]3CC[C@H](CNc4ccc(CC(=O)NC5COC5)cn4)CC3)nc2c1Cl [Example 15, 2-(6-((((1r,4r)-4-((8-chloro-7-methylquinolin-2-yl)amino)cyclohexyl)methyl)amino)pyridin-3-yl)-N-(oxetan-3-yl)acetamide]
IC50 [1]: < 10 nM
